Patent US9765056B2, “Indole and pyrrole compounds, a process for their preparation and pharmaceutical compositions containing them” (LES LABORATOIRES SERVIER, priority 2013, dated 2017)
Where a name gives a salt, the structure may show the parent alone.

What was measured:
Bcl-2 protein = Bcl-2 protein (histag-Bcl-2, UniProtKB P10415) (Homo sapiens (Human), UniProt P10415); experiment: Inhibition of Bcl-2 by the fluorescence polarisation technique; format: binding; details: for IC50: fluorescence polarisation test, method A, or method B where underlined (underlining not visible), read-out: IC50 (nM) Bcl-2 FP
Description: Inhibition of Bcl-2 by the fluorescence polarisation technique

[1] = system: RS4;11 leukaemia tumour line; experiment: In vitro cytotoxicity, Microculture Tetrazolium Assay (MTT); format: cell-based; details: Homo sapiens; RS4;11 cells, 48 hours exposure
Experimental: The cytotoxicity studies were carried out on the RS4;11 leukaemia tumour line.
The cells are distributed onto microplates and exposed to the test compounds for 48 hours. The cell viability is then quantified by a colorimetric assay, the Microculture Tetrazolium Assay (Cancer Res., 1987, 47, 939-942).

Chain of Bcl-2 protein (P10415 whole entry): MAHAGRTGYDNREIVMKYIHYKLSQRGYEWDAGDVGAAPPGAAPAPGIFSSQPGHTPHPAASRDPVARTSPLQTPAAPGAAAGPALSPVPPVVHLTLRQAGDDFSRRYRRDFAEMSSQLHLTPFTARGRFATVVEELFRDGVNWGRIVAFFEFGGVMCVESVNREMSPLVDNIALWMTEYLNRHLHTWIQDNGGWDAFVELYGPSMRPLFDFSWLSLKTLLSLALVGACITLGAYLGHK

SMILES | IC50 (Bcl-2 protein) [nM] | IC50 [1] [nM] | inhibition at 10 µM (Bcl-2 protein; read-out: percentage fluorescence polarisation inhibition (Bcl-2 FP)) [%]
CC(C)n1ccc2cc(N(C(=O)c3cn(-c4cc5c(cc4C(=O)N4Cc6ccccc6C[C@H]4CN4CCN(C)CC4)OCO5)c4ccccc34)c3ccc(O)cc3)ccc21 [Example 100, N-(4-Hydroxyphenyl)-1-(6-{[(3S)-3-[(4-methylpiperazin-1-yl)methyl]-3,4-dihydroisoquinolin-2(1H)-yl]carbonyl}-1,3-benzodioxol-5-yl)-N-[1-(propan-2-yl)-1H-indol-5-yl]-1H-indole-3-carboxamide] | 6.9 | 43.4 | 
CN1CCN(C[C@@H]2Cc3ccccc3CN2C(=O)c2cc3c(cc2-n2cc(C(=O)N(c4ccc(O)cc4)c4ccc(Cl)cc4)c4ccccc42)OCO3)CC1 [Example 31, N-(4-Chlorophenyl)-N-(4-hydroxyphenyl)-1-(6-{[(3S)-3-[(4-methylpiperazin-1-yl)methyl]-3,4-dihydroisoquinolin-2(1H)-yl]carbonyl}-1,3-benzodioxol-5-yl)-1H-indole-3-carboxamide] | 5.5 | 71.4 | 
Cc1cc(C(=O)N(c2ccccc2)c2ccc(O)cc2)cn1-c1cc(Br)ccc1C(=O)N1Cc2ccccc2C[C@H]1CN1CCOCC1 [Example 42, 1-(5-Bromo-2-{[(3S)-3-(morpholin-4-ylmethyl)-3,4-dihydroisoquinolin-2(1H)-yl]carbonyl}phenyl)-N-(4-hydroxyphenyl)-5-methyl-N-phenyl-1H-pyrrole-3-carboxamide] | 23.1 | 353 | 
CN1CCN(C[C@@H]2Cc3ccccc3CN2C(=O)c2cc3c(cc2-n2cc(C(=O)N(c4ccc(O)cc4)c4ccc5sccc5c4)c4ccccc42)OCO3)CC1 [Example 43, N-(1-Benzothiophen-5-yl)-N-(4-hydroxyphenyl)-1-(6-{[(3S)-3-[(4-methylpiperazin-1-yl)methyl]-3,4-dihydroisoquinolin-2(1H)-yl]carbonyl}-1,3-benzodioxol-5-yl)-1H-indole-3-carboxamide] | 7.2 | 101 | 
Cc1ccc(N(C(=O)c2cc(C)n(-c3cc(Cl)ccc3C(=O)N3Cc4ccccc4C[C@H]3CN3CCN(C)CC3)c2)c2ccc(O)cc2)cc1 [Example 91, 1-(5-Chloro-2-{[(3S)-3-[(4-methylpiperazin-1-yl)methyl]-3,4-dihydroisoquinolin-2(1H)-yl]carbonyl}phenyl)-N-(4-hydroxyphenyl)-5-methyl-N-(4-methylphenyl)-1H-pyrrole-3-carboxamide] | 5.3 | 172 | 
Cc1ccc(N(C(=O)c2cn(-c3cc4c(cc3C(=O)N3Cc5ccccc5C[C@H]3CN3CCN(C)CC3)OCO4)c3ccccc23)c2ccc3[nH]ncc3c2)cc1 [Example 68, N-(1H-Indazol-5-yl)-N-(4-methylphenyl)-1-(6-{[(3S)-3-[(4-methylpiperazin-1-yl)methyl]-3,4-dihydroisoquinolin-2(1H)-yl]carbonyl}-1,3-benzodioxol-5-yl)-1H-indole-3-carboxamide hydrochloride] | 79.7 | 856 | 
CN1CCN(C[C@@H]2Cc3ccccc3CN2C(=O)c2cc3c(cc2-n2cc(C(=O)N(c4ccc(O)cc4)c4ccc(F)cc4)c4ccccc42)OCO3)CC1 [Example 35, N-(4-Fluorophenyl)-N-(4-hydroxyphenyl)-1-(6-{[(3S)-3-[(4-methylpiperazin-1-yl)methyl]-3,4-dihydroisoquinolin-2(1H)-yl]carbonyl}-1,3-benzodioxol-5-yl)-1H-indole-3-carboxamide] | 3.5 | 68.9 | 
Cc1cc(C(=O)N(c2ccccc2)c2ccc(O)cc2)cn1-c1cc(F)ccc1C(=O)N1Cc2ccccc2C[C@H]1CN(C)C [Example 14, 1-(2-{[(3S)-3-[(Dimethylamino)methyl]-3,4-dihydroisoquinolin-2(1H)-yl]carbonyl}-5-fluorophenyl)-N-(4-hydroxyphenyl)-5-methyl-N-phenyl-1H-pyrrole-3-carboxamide] | 24.8 | 1270 | 
Cc1cc(C(=O)N(c2ccccc2)c2ccc(O)cc2)cn1-c1cc2c(cc1C(=O)N1Cc3ccccc3C[C@H]1CN1CCN(C)CC1)OCO2 [Example 24, N-(4-Hydroxyphenyl)-5-methyl-1-(6-{[(3S)-3-[(4-methylpiperazin-1-yl)methyl]-3,4-dihydroisoquinolin-2(1H)-yl]carbonyl}-1,3-benzodioxol-5-yl)-N-phenyl-1H-pyrrole-3-carboxamide] | 15.6 | 140 | 
CN1CCN(C[C@@H]2Cc3ccccc3CN2C(=O)c2cc3c(cc2-n2cc(C(=O)N(c4ccc(O)cc4)c4ccc5occc5c4)c4ccccc42)OCO3)CC1 [Example 44, N-(1-Benzofuran-5-yl)-N-(4-hydroxyphenyl)-1-(6-{[(3S)-3-[(4-methylpiperazin-1-yl)methyl]-3,4-dihydroisoquinolin-2(1H)-yl]carbonyl}-1,3-benzodioxol-5-yl)-1H-indole-3-carboxamide] | 6.8 | 164 | 
CN(C)c1ccc(-n2nc(C(=O)N(c3ccccc3)c3ccccc3)c3ccccc32)c(C(=O)N2Cc3ccccc3C[C@H]2CN)c1 [Example 141, 1-{2-[(3S)-3-(Aminomethyl)-1,2,3,4-tetrahydroisoquinoline-2-carbonyl]-4-(dimethylamino)phenyl}-N,N-diphenyl-1H-indazole-3-carboxamide] | 56.7 | 2280 | 
Cc1cc(C(=O)N(c2ccc(O)cc2)c2ccc3c(c2)CCN3)cn1-c1cc2c(cc1C(=O)N1Cc3ccccc3C[C@H]1CN1CCOCC1)CCC2 [Example 110, N-(2,3-Dihydro-1H-indol-5-yl)-N-(4-hydroxyphenyl)-5-methyl-1-(6-{[(3S)-3-(morpholin-4-ylmethyl)-3,4-dihydroisoquinolin-2(1H)-yl]carbonyl}-2,3-dihydro-1H-inden-5-yl)-1H-pyrrole-3-carboxamide hydrochloride] | 8.1 | 291 | 
Cc1cc(C(=O)N(c2ccc(O)cc2)c2ccc3c(ccn3CCN3CCOCC3)c2)cn1-c1cc2c(cc1C(=O)N1Cc3ccccc3C[C@H]1C)OCO2 [Example 116, N-(4-Hydroxyphenyl)-5-methyl-1-(6-{[(3R)-3-methyl-3,4-dihydroisoquinolin-2(1H)-yl]carbonyl}-1,3-benzodioxol-5-yl)-N-{1-[2-(morpholin-4-yl)ethyl]-1H-indol-5-yl}-1H-pyrrole-3-carboxamide hydrochloride] | 12.1 | 131 | 
Cc1ccc(N(C(=O)c2cn(-c3cc4c(cc3C(=O)N3Cc5ccccc5C[C@H]3CN3CCN(C)CC3)OCO4)c3ccccc23)C2CCNCC2)cc1 [Example 98, N-(4-Methylphenyl)-1-(6-{[(3S)-3-[(4-methylpiperazin-1-yl)methyl]-3,4-dihydroisoquinolin-2(1H)-yl]carbonyl}-1,3-benzodioxol-5-yl)-N-(piperidin-4-yl)-1H-indole-3-carboxamide bis-hydrochloride] |  | 1880 | 45.1
COc1cc(-n2cc(C(=O)N(c3ccccc3)c3ccc4[nH]ccc4c3)c3ccccc32)c(C(=O)N2Cc3ccccc3C[C@H]2CN2CCN(C)CC2)cc1O [Example 198, 1-{4-Hydroxy-5-methoxy-2-[(3S)-3-[(4-methylpiperazin-1-yl)methyl]-1,2,3,4-tetrahydroisoquinoline-2-carbonyl]phenyl}-N-(1H-indol-5-yl)-N-phenyl-1H-indole-3-carboxamide] | 3.4 | 616 | 
O=C(c1cn(-c2cc3c(cc2C(=O)N2Cc4ccccc4C[C@H]2CN2CCCCC2)OCO3)c2ccccc12)N(c1ccccc1)c1ccc(O)cc1 [Example 174, N-(4-Hydroxyphenyl)-N-phenyl-1-{6-[(3S)-3-(piperidin-1-ylmethyl)-1,2,3,4-tetrahydroisoquinoline-2-carbonyl]-2H-1,3-benzodioxol-5-yl}-1H-indole-3-carboxamide] | 41.2 | 402 | 
CN1CCN(C[C@@H]2Cc3ccccc3CN2C(=O)c2cc3c(cc2-n2cc(C(=O)N(c4ccc(O)cc4)c4ccc(F)c(Cl)c4)c4ccccc42)OCO3)CC1 [Example 58, N-(3-Chloro-4-fluorophenyl)-N-(4-hydroxyphenyl)-1-(6-{[(3S)-3-[(4-methylpiperazin-1-yl)methyl]-3,4-dihydroisoquinolin-2(1H)-yl]carbonyl}-1,3-benzodioxol-5-yl)-1H-indole-3-carboxamide hydrochloride] | 20.5 | 190 | 
Cc1cc(C(=O)N(c2ccc(O)cc2)c2ccc(F)cc2)cn1-c1cc2c(cc1C(=O)N1Cc3ccccc3C[C@H]1CN1CCN(C)CC1)OCO2 [Example 84, N-(4-Fluorophenyl)-N-(4-hydroxyphenyl)-5-methyl-1-(6-{[(3S)-3-[(4-methylpiperazin-1-yl)methyl]-3,4-dihydroisoquinolin-2(1H)-yl]carbonyl}-1,3-benzodioxol-5-yl)-1H-pyrrole-3-carboxamide] | 6.7 | 146 | 
Cc1cc(C(=O)N(c2ccc(O)cc2)c2ccc3c(ccn3C)c2)cn1-c1cc2c(cc1C(=O)N1Cc3ccccc3C[C@H]1CN(C)C)OCO2 [Example 94, 1-(6-{[(3S)-3-[(Dimethylamino)methyl]-3,4-dihydroisoquinolin-2(1H)-yl]carbonyl}-1,3-benzodioxol-5-yl)-N-(4-hydroxyphenyl)-5-methyl-N-(1-methyl-1H-indol-5-yl)-1H-pyrrole-3-carboxamide hydrochloride] | 7.9 | 118 | 
CN1CCN(C[C@@H]2Cc3ccccc3CN2C(=O)c2ccc(Br)cc2-n2cc(C(=O)N(c3ccc(O)cc3)c3ccc(F)cc3)c3ccccc32)CC1 [Example 71, 1-(5-Bromo-2-{[(3S)-3-[(4-methylpiperazin-1-yl)methyl]-3,4-dihydroisoquinolin-2(1H)-yl]carbonyl}phenyl)-N-(4-fluorophenyl)-N-(4-hydroxyphenyl)-1H-indole-3-carboxamide] | 8.3 | 196 | 
